Assay results reported in US5270313A, “Sulfonamides and uses” (Hoffmann-La Roche Inc., priority 1991, dated 1993).

Legend:
vasoconstriction = assay: Inhibitory activity on vasoconstriction in vivo in the rat (renal ischemia, renal blood flow); conditions: 10 minutes prior to 45 min renal ischemia, control reduced by 43±4%
Method: III. The inhibitory activity of the compounds of formula I on vasoconstriction can be observed in vivo in the rat in the test procedure described hereinafter:
Rats were anaesthetized with Na thiobutabarbital (100 mg/kg i.p.). […] A Doppler probe was placed around the left renal artery and attached to a Doppler measuring device. A renal ischemia was produced by pinching off the left renal artery at its point of emergence for 45 minutes. The test compounds were administered 10 minutes prior to the onset of the ischemia intra-arterially (i.a.) in doses of 5 mg/kg or intraveneously (i.v) in doses of 10 mg/kg. In control experiments, the renal blood flow was reduced by 43±4% in comparison to the pre-ischemic value.

[1] = test system: endothelin-induced contractions in isolated aorta rings; assay: Inhibition of endothelin-induced contractions in isolated aorta rings of the rat; assay type: cell-based, rat (Wistar-Kyoto); conditions: for Dosage ratio (correcting shift): shift to higher values of the EC50 of endothelin induced by 100 μm of test compound, endothelium removed
Method: II. Inhibition of endothelin-induced contractions in isolated aorta rings of the rat
Rings with a thickness of 5 mm were dissected from the thorax aorta of adult Wistar-Kyoto rats. The endothelium was removed by rubbing the internal surface slightly. Each ring was immersed in an isolated bath at 37° C. in 10 ml of Krebs-Henseleit solution while gassing with 95% O2 and 5% CO2. The isometric tension of the rings was measured. The rings were stretched to an initial tension of 3 g. After incubation with the test compound or vehicle for 10 minutes cumulative doses of endothelin-1 were added. The activity of the test compound was determined by calculating the dosage ratio, that is, the correcting shift (shift to higher values) of the EC50 of endothelin induced by 100 μm of test compound, whereby EC50 denotes the endothelin concentration required for a half-maximum contraction. […] The EC50 of endothelin in the absence of test compounds is 0.3 nM.

endothelin receptors = assay: Inhibition of endothelin binding to human placenta membranes (125I-endothelin); conditions: concentration required to inhibit the specific binding of 125I-endothelin by 50%, 125I-endothelin 20 pM, 20° C. for 2 hours or 4° C. for 24 hours
Method: I. Inhibition of endothelin binding to human placenta membranes (see Life Sci 44:1429 (1989)
Human placenta is homogenized in 5 mM Tris buffer, pH 7.4, which contains 1 mM MgCl2 and 250 mM sucrose. The product of the homogenization is centrifuged at 4° C. for 15 minutes at 3000 g. The supernatant containing the plasma membrane fractions is centrifuged for 30 minutes at 72000 g and the precipitate obtained from, in each case, 10 g of original tissue is suspended in 1 ml of 75 mM Tris buffer, pH 7.4, containing 25 mM MgCl2 and 250 mM sucrose and freeze-dried at -20° C. in 1 ml aliquots.
For the binding assay, the freeze-dried membrane preparations are thawed and, after centrifugation at 20° C. for 10 minutes at 25000 g, re-suspended in assay buffer (50 mM Tris buffer, pH 7.4, containing 25 mM MnCl2, 1 mM EDTA and 0.5% bovine serum albumin). 100 μl of this membrane suspension, containing 70 μg of protein, are incubated with 50 μl of ^125 I-endothelin (specific activity 2200 Ci/mMol) in assay buffer (25000 cpm, final concentration 20 pM) and 100 μl of assay buffer which contains varying concentrations of the test compound. The incubation is carried out at 20° C. for 2 hours or at 4° C. for 24 hours. The separation of free and membrane-bound radioligands is carried out by filtration over a glass fiber filter.
The inhibitory activity of compounds of formula I determined in this test procedure is given in Table 1 as the IC50, that is, as the concentration [μM] which is required to inhibit the specific binding of ^125 I-endothelin by 50%.

| Compound | % Decrease in the renal of blood flow (vasoconstriction; i.a., 5 mg/kg) [%] | Dosage ratio (correcting shift) [1] | IC50 (endothelin receptors) [µM] | % Decrease in the renal of blood flow (vasoconstriction; i.v., 10 mg/kg) [%] | EC50 ([1]; in the absence of test compounds, half-maximum contraction) [µM] |
| --- | --- | --- | --- | --- | --- |
| O=S(=O)(Nc1ncnc(OCCO)c1-c1ccc(Cl)cc1)c1ccc(C(F)(F)F)cc1 [Example 1, N-[5-(p-chlorophenyl)-6-(2-hydroxyethoxy)-4-pyrimidinyl]-α,α,α-trifluoro-p-toluenesulfonamide] | 7 | 30 | 5 | – | – |
| COc1ccc(-c2c(NS(=O)(=O)c3ccc(C(C)C)cc3)ncnc2OCCO)cc1 [Example 54, N-[6-(2-hydroxyethoxy)-5-(p-methoxyphenyl)-4-pyrimidinyl]-p-isopropylbenzene-sulfonamide] | – | 21 | 3 | – | – |
| COc1ccccc1Cc1c(NS(=O)(=O)c2ccc(C(C)C)cc2)ncnc1OCCO [Example 63] | – | 23 | 1.6 | – | – |
| COc1ccccc1Cc1c(NS(=O)(=O)c2ccc(C(C)(C)C)cc2)ncnc1OCCO [Example 64, p-t-butyl-N-[6-(2-hydroxyethoxy)-5-(o-methoxy-benzyl)-4-pyrimidinyl]benzenesulfonamide] | – | 19 | 2 | – | – |
| CSc1ccccc1Cc1c(NS(=O)(=O)c2ccc(C(C)C)cc2)ncnc1OCCO [Example 66] | – | 96 | 0.5 | – | – |
| Cc1ccc(-c2c(NS(=O)(=O)c3ccc(C(C)C)cc3)ncnc2OCCO)cc1 [Example 83] | – | 86 | 0.7 | 29 | – |
| Cc1ccc(-c2c(NS(=O)(=O)c3ccc(C(C)(C)C)cc3)ncnc2OCCO)cc1 [Example 84, p-tert-butyl-N-[6-(2-hydroxyethoxy)-5-p-tolyl-4-pyrimidinyl]benzenesulfonamide] | – | 106 | 1 | – | – |
| endothelin: endothelin-1, contractile agonist added in cumulative doses to rat aorta rings [reference compound] | – | – | – | – | 0.0003 |
